Validated cytotoxicity data for 50 substances are collected here from patent US11879140B2, “P21 mRNA targeting DNAzymes” (1E Therapeutics Ltd., priority 2020, dated 2024).

This data set concerns senescent human IMR-90 fibroblast cells. It counts as cell-based. The method, then:
Human IMR-90, BJ, WI-38 fibroblasts and REC epithelial cells were obtained from ATCC and grown at 5% oxygen. IMR-90 and REC cells were maintained in DMEM medium comprising 100 units per ml of penicillin, […] of streptomycin and 10% fetal bovine serum. BJ and WI-38 cells were maintained in EMEM medium comprising 100 units per ml of penicillin, […] of streptomycin, 10% fetal bovine serum, 1% Pyruvate, 1% L-Glutamine, mLFs were isolated according to standard procedures [Seluanov, A., et al. J Vis Exp (2010) (44):2033] and grown at 5% oxygen. Cells were maintained in EMEM medium comprising 100 units per ml of penicillin, […] of streptomycin and 15% fetal bovine serum.
DNA damage induced senescence (DIS) was induced by etoposide treatment (E1383, Sigma) at a concentration of […] for IMR-90, BJ, and WI-38, 16 μM for mLF and 12.5 μM for REC for a duration of 48 hours. Cells acquired the senescence phenotype 7 days post treatment (determined by SA-beta-gal staining).
Oncogene Induced Senescence (OIS) was induced by means of retroviral infection with H-RasG12 (pLNCX2) at 5% oxygen. Retroviruses were packaged, and infections were performed as described below.
Replicative Induced Senescence (RIS) was induced by long-term passaging of the cells in tissue culture. Cells acquired the senescence phenotype after 40 population doublings.
Primary target cells (IMR-90, BJ, […]) were plated in 24-well plates at 100,000 cells per well. Cells were transfected with different concentrations of DNAzymes (as depicted in Table 2, below) using Lipofectamine™ 2000 (Invitrogen) according to manufacturer instructions. The percentage of survival was determined based on quantification of remaining adherent cells using PrestoBlue® reagent (A13262, Life Technologies Ltd.) relative to Lipofectamine™ only control and compared to Scramble DNAzyme (Dz_Scramble) [Scramble Arm (Scr A) sequence: ATCTTCCTFggctagctacaacgaCGCCTCTCC, SEQ ID NO: 5, or Scramble catalytic core (Scr B) sequence: AGGAGAACAacagtaactggcgacGGGATGAGG, SEQ ID NO: 86] treated cells, 3-6 days following transfection.
With “1991 (DNA AAAGTGCAAGGCTAGCTACAACGAGAACTGGGG; chemistry not given here) [compound 1991]”, the Validated cytotoxicity result is reported as “+”.

Regarding “1089 (DNA TAAATAGTAGGCTAGCTACAACGATTCATAAAA; chemistry not given here) [compound 1089]”, the Validated cytotoxicity result was “+”.

Consider “1854 (DNA CCTGTGCCAGGCTAGCTACAACGACACATGGGA; chemistry not given here) [compound 1854]”, for which the Validated cytotoxicity entry is reported as “+”.

“174 (DNA GCAAAGAAAGGCTAGCTACAACGAGACTATAGT; chemistry not given here) [compound 174]”: the Validated cytotoxicity entry is “+”.

For “1602 (DNA CTGGGGCTTCCGAGCCGGACGATCAAAAGGT; chemistry not given here) [compound 1602]”, the Validated cytotoxicity entry is “+”.

For “1976 (DNA GGGGAGGGAGGCTAGCTACAACGAGGGGTGGAT; chemistry not given here) [compound 1976]”, the Validated cytotoxicity entry was “+”.

Regarding “1838 (DNA GGACCCTCAGGCTAGCTACAACGACCCCACAGC; chemistry not given here) [compound 1838]”, the Validated cytotoxicity result is given as “+”.

For “1524 (DNA GAGGGGCCAGGCTAGCTACAACGAGAGGGCAGG; chemistry not given here) [compound 1524]”, the Validated cytotoxicity entry was “+”.

“1641 (DNA AGAGGGGAAGGCTAGCTACAACGATGCAGAGCC; chemistry not given here) [compound 1641]”: the Validated cytotoxicity entry was “+”.

As to “387 (DNA GCTGCCGCAGGCTAGCTACAACGAGGGTTCTGA; chemistry not given here) [compound 387]”, the Validated cytotoxicity result is “+”.

Consider “1683 (DNA AGAGGGTATCCGAGCCGGACGAGAAGGGAAA; chemistry not given here) [compound 1683]”, for which the Validated cytotoxicity result is reported as “+”.

As for “1003 (DNA GCCAGAGGTCCGAGCCGGACGAGGGGGGCAG; chemistry not given here) [compound 1003]”, the Validated cytotoxicity entry is reported as “+”.

With “2215 (DNA GAGAGAAAAGGCTAGCTACAACGAAGTCCAGGC; chemistry not given here) [compound 2215]”, the Validated cytotoxicity entry was “+”.

For “1252 (DNA GGGGGTGAAGGCTAGCTACAACGATTCATAACC; chemistry not given here) [compound 1252]”, the Validated cytotoxicity entry is listed as “+”.

On to “354 (DNA CGGTTCTGAGGCTAGCTACAACGAATGGCGCCT; chemistry not given here) [compound 354]”, for which the Validated cytotoxicity entry is recorded as “+”.

Turning to “1742 (DNA TCCAGTCCAGGCTAGCTACAACGATGAGCTGGG; chemistry not given here) [compound 1742]”, the Validated cytotoxicity result was “+”.

“1455 (DNA AGGGGGGTAGGCTAGCTACAACGACAAGAGCCA; chemistry not given here) [compound 1455]”: the Validated cytotoxicity entry is reported as “+”.

Take “364 (DNA TGACGGACAGGCTAGCTACAACGACCCCAGCCG; chemistry not given here) [compound 364]”: the Validated cytotoxicity result is reported as “+”.

As for “225 (DNA CTGGGGAAAGGCTAGCTACAACGATGGGGCTCA; chemistry not given here) [compound 225]”, the Validated cytotoxicity entry is recorded as “+”.

“1417 (DNA GCTCAGCCTCCGAGCCGGACGAAGGCTGTGC; chemistry not given here) [compound 1417]”: the Validated cytotoxicity entry is reported as “+”.

Take “237 (DNA CCGTATACAGGCTAGCTACAACGATGCTGGGGA; chemistry not given here) [compound 237]”: the Validated cytotoxicity entry is reported as “+”.

For “1684 (DNA GAGAGGGTAGGCTAGCTACAACGATGAAGGGAA; chemistry not given here) [compound 1684]”, the Validated cytotoxicity result is “+”.

In the case of “317 (DNA TGGTTGCAGGGCTAGCTACAACGAAGCTTTGTT; chemistry not given here) [compound 317]”, the Validated cytotoxicity entry is given as “+”.

On to “2200 (DNA AGGCCAGTAGGCTAGCTACAACGAGTTACAGGA; chemistry not given here) [compound 2200]”, for which the Validated cytotoxicity entry is “+”.

Turning to “2235 (DNA ACCAGGACAGGCTAGCTACAACGAATGGGGAGC; chemistry not given here) [compound 2235]”, the Validated cytotoxicity result is reported as “+”.

For the substance “603 (DNA ATCCCGGCTCCGAGCCGGACGACGCCGGGGC; chemistry not given here) [compound 603]”, the Validated cytotoxicity result is “+”.

Consider “835 (DNA AGGGCTTCTCCGAGCCGGACGACTTGGAGAA; chemistry not given here) [compound 835]”, for which the Validated cytotoxicity entry is on record as “+”.

Regarding “1736 (DNA CCATTGAGTCCGAGCCGGACGAGGGGGTGGG; chemistry not given here) [compound 1736]”, the Validated cytotoxicity entry is “+”.

Take “252 (DNA TACTCCCCAGGCTAGCTACAACGAATAGCCCGT; chemistry not given here) [compound 252]”: the Validated cytotoxicity entry is “+”.

As for “304 (DNA TTTGTTGGTCCGAGCCGGACGAAGGAAGGGG; chemistry not given here) [compound 304]”, the Validated cytotoxicity entry is recorded as “+”.

In the case of “846 (DNA GTGGGCGGAGGCTAGCTACAACGATAGGGCTTC; chemistry not given here) [compound 846]”, the Validated cytotoxicity result is on record as “+”.

“352 (DNA GTTCTGACAGGCTAGCTACAACGAGGCGCCTGA; chemistry not given here) [compound 352]”: the Validated cytotoxicity result is reported as “+”.

Turning to “1719 (DNA GGGGTGGGAGGCTAGCTACAACGAAGGCACCTC; chemistry not given here) [compound 1719]”, the Validated cytotoxicity entry is reported as “+”.

In the case of “185 (DNA CAGATCATGGGCTAGCTACAACGAAGCAAAGAA; chemistry not given here) [compound 185]”, the Validated cytotoxicity result is recorded as “+”.

“974 (DNA GGGTATGTAGGCTAGCTACAACGAATGAGGAGG; chemistry not given here) [compound 974]”: the Validated cytotoxicity entry is on record as “+”.

With “1967 (DNA TGGGGTGGAGGCTAGCTACAACGAGAGGAAGGT; chemistry not given here) [compound 1967]”, the Validated cytotoxicity entry is “+”.

Take “111 (DNA CATCCTTTAGGCTAGCTACAACGATTCTGGGGT; chemistry not given here) [compound 111]”: the Validated cytotoxicity result is “+”.

For the substance “1582 (DNA CAGGGGAGTCCGAGCCGGACGAAAAGAGGGA; chemistry not given here) [compound 1582]”, the Validated cytotoxicity result is given as “+”.

For the substance “100 (DNA TCTGGGGTTCCGAGCCGGACGATTAGAGGTC; chemistry not given here) [compound 100]”, the Validated cytotoxicity result is on record as “+”.

With “1947 (DNA GCTGGACGAGGCTAGCTACAACGATTGAGGGGC; chemistry not given here) [compound 1947]”, the Validated cytotoxicity result was “+”.

For the substance “1986 (DNA GCAATGAATCCGAGCCGGACGAGGGGAGGGA; chemistry not given here) [compound 1986]”, the Validated cytotoxicity result is “+”.

Consider “16 (DNA CCTCTTCTAGGCTAGCTACAACGAGCCAGAGCT; chemistry not given here) [compound 16]”, for which the Validated cytotoxicity result was “+”.

As to “857 (DNA GCAGGCTTTCCGAGCCGGACGATGTGGGCGG; chemistry not given here) [compound 857]”, the Validated cytotoxicity entry is “+”.

“377 (DNA GGGTTCTGAGGCTAGCTACAACGAGGACATCCC; chemistry not given here) [compound 377]”: the Validated cytotoxicity result is recorded as “+”.

“1938 (DNA TTTGAGGGGGGCTAGCTACAACGACAGTGTCTC; chemistry not given here) [compound 1938]”: the Validated cytotoxicity entry is recorded as “+”.

As to “290 (DNA AGGGGAGGAGGCTAGCTACAACGATTGACGAGT; chemistry not given here) [compound 290]”, the Validated cytotoxicity entry was “+”.

For the substance “236 (DNA CGTATACATCCGAGCCGGACGAGCTGGGGAA; chemistry not given here) [compound 236]”, the Validated cytotoxicity entry was “+”.

Take “442 (DNA AGTCGCGGTCCGAGCCGGACGACAGCTGCTC; chemistry not given here) [compound 442]”: the Validated cytotoxicity entry is “+”.

Regarding “1418 (DNA AGCTCAGCTCCGAGCCGGACGATAGGCTGTG; chemistry not given here) [compound 1418]”, the Validated cytotoxicity result is on record as “+”.

For “2266 (DNA AGAGGTTTAGGCTAGCTACAACGAAGTCTAGGT; chemistry not given here) [compound 2266]”, the Validated cytotoxicity result is given as “+”.
